According to ChEMBL document CHEMBL1140025, “Antimicrobial activity of rationally designed amino terminal modified peptides” (Bioorg Med Chem Lett, 2007):
In brackets after ≈: the same amount, converted by molar mass. Where a SMILES comes first, the peptide text is derived from it. [ ]: non-standard residue; d: D form. The star is where a group is joined. Desaminotyrosyl = O=C(CCc1ccc(O)cc1)*; X1 = O=C(/C=C/c1ccc(O)cc1)*; Orn = NCCC[C@H](N)C(=O)O; X2 = O=C(/C=C/c1ccccc1)*

Assays:
[1] = Toxicity against human red blood cells assessed as lysis upto 1000 ug/mL; format: cell-based, Erythrocyte; conditions: read-out: Activity
Escherichia coli [2] = experiment: Antibacterial activity against Escherichia coli MTCCB 1610; format: functional
Pseudomonas aeruginosa = experiment: Antibacterial activity against Pseudomonas aeruginosa MTCCB 741; format: functional
Bacillus subtilis = experiment: Antibacterial activity against Bacillus subtilis NCIM 2063; format: functional
Escherichia coli [3] = experiment: Antibacterial activity against Escherichia coli
Staphylococcus aureus = experiment: Antibacterial activity against Staphylococcus aureus MTCCB 96; format: functional

Compound	hemolysis [1]	MIC (Escherichia coli [2])	MIC (Pseudomonas aeruginosa)	MIC (Bacillus subtilis)	MIC (Escherichia coli [3])	MIC (Staphylococcus aureus)
NC(=O)[C@H](Cc1c[nH]c2ccccc12)NC(=O)[C@H](Cc1c[nH]c2ccccc12)NC(=O)/C=C/c1ccc(O)cc1	0%	< 512 µg/mL	< 512 µg/mL	1 µg/mL (≈ 1.87 µM)	< 512 µg/mL	2 µg/mL (≈ 3.73 µM)
CC(=O)N[C@@H](CCCN)C(=O)N[C@@H](CCCN)C(=O)N[C@@H](Cc1c[nH]c2ccccc12)C(=O)N[C@@H](Cc1c[nH]c2ccccc12)C(N)=O (Ac-[Orn][Orn]WW-NH2)	0%	32 µg/mL (≈ 48.5 µM)	128 µg/mL (≈ 194 µM)	2 µg/mL (≈ 3.03 µM)	128 µg/mL (≈ 194 µM)	2 µg/mL (≈ 3.03 µM)
NCCC[C@H](NC(=O)CCc1ccc(O)cc1)C(=O)N[C@@H](CCCN)C(=O)N[C@@H](Cc1c[nH]c2ccccc12)C(=O)N[C@@H](Cc1c[nH]c2ccccc12)C(N)=O (Desaminotyrosyl-[Orn][Orn]WW-NH2)	0%	2 µg/mL (≈ 2.61 µM)	32 µg/mL (≈ 41.8 µM)	2 µg/mL (≈ 2.61 µM)	4 µg/mL (≈ 5.22 µM)	1 µg/mL (≈ 1.31 µM)
NCCC[C@H](NC(=O)[C@@H](N)CCCN)C(=O)N[C@@H](Cc1c[nH]c2ccccc12)C(=O)N[C@@H](Cc1c[nH]c2ccccc12)C(N)=O (H-[Orn][Orn]WW-NH2)	0%	512 µg/mL (≈ 829 µM)	256 µg/mL (≈ 414 µM)	512 µg/mL (≈ 829 µM)	256 µg/mL (≈ 414 µM)	128 µg/mL (≈ 207 µM)
NCCC[C@H](NC(=O)/C=C/c1ccc(O)cc1)C(=O)N[C@@H](CCCN)C(=O)N[C@@H](Cc1ccccc1)C(=O)N[C@@H](Cc1ccccc1)C(N)=O (X1-[Orn][Orn]FF-NH2)	0%	4 µg/mL (≈ 5.83 µM)	2 µg/mL (≈ 2.92 µM)	2 µg/mL (≈ 2.92 µM)	8 µg/mL (≈ 11.7 µM)	32 µg/mL (≈ 46.7 µM)
NCCC[C@H](NC(=O)/C=C/c1ccc(O)cc1)C(=O)N[C@@H](CCCN)C(=O)N[C@@H](Cc1c[nH]c2ccccc12)C(=O)N[C@@H](Cc1c[nH]c2ccccc12)C(N)=O (X1-[Orn][Orn]WW-NH2)	0%	16 µg/mL (≈ 20.9 µM)	2 µg/mL (≈ 2.62 µM)	1 µg/mL (≈ 1.31 µM)	8 µg/mL (≈ 10.5 µM)	2 µg/mL (≈ 2.62 µM)
NCCC[C@H](NC(=O)/C=C/c1ccc(O)cc1)C(=O)N[C@@H](CCCN)C(=O)N[C@@H](Cc1c[nH]c2ccccc12)C(=O)N[C@@H](Cc1c[nH]c2ccccc12)C(=O)O (X1-[Orn][Orn]WW-OH)	0%	64 µg/mL (≈ 83.7 µM)	64 µg/mL (≈ 83.7 µM)	128 µg/mL (≈ 167 µM)	128 µg/mL (≈ 167 µM)	128 µg/mL (≈ 167 µM)
NCCC[C@H](NC(=O)/C=C/c1ccccc1)C(=O)N[C@@H](CCCN)C(=O)N[C@@H](Cc1c[nH]c2ccccc12)C(=O)N[C@@H](Cc1c[nH]c2ccccc12)C(N)=O (X2-[Orn][Orn]WW-NH2)	0%	2 µg/mL (≈ 2.67 µM)	16 µg/mL (≈ 21.4 µM)	32 µg/mL (≈ 42.8 µM)	4 µg/mL (≈ 5.35 µM)	2 µg/mL (≈ 2.67 µM)
CN(C)[C@@H]1C(O)=C(C(N)=O)C(=O)[C@@]2(O)C(O)=C3C(=O)c4c(O)cccc4[C@@](C)(O)[C@H]3C[C@@H]12 [TETRACYCLINE]		0.5 µg/mL (≈ 1.13 µM)	1 µg/mL (≈ 2.25 µM)	0.125 µg/mL (≈ 0.281 µM)	2 µg/mL (≈ 4.5 µM)	0.25 µg/mL (≈ 0.563 µM)
GENTAMICIN		0.25 µg/mL	1 µg/mL	0.03 µg/mL		0.062 µg/mL
